# Data published in the Deep4Chem optical property database.
# Assay: solvent given as SMILES
# Settings: in C1CCCCC1
row,emission maximum,Structure (SMILES)
1,465 nm,CN(C)c1ccc(/C=C/c2ncnc3ccccc23)cc1
2,407 nm,Oc1ccc2ccccc2c1-c1nc(-c2ccccc2)c2ccccn12
3,375 nm,NCc1ccc2ccc3cccc4ccc1c2c34
4,404 nm,COc1c2ccccc2c(OC)c2c1c1ccc(F)cc1n2C
5,401.88 nm,O=S1c2ccccc2-c2cc(-c3c4ccccc4cc4ccccc34)ccc21 (stereo not given)

row,Structure (SMILES),emission maximum
1,Oc1ccc(/N=C/c2ccccc2Oc2ccccc2)cc1,410 nm

# Same assay, conditions: in C1CCOC1
row,Structure (SMILES),emission maximum
1,c1ccc(-c2cc(-c3ccc4ccc5cccc6ccc3c4c56)ccn2)nc1,394 nm
2,CN(C)c1ccc(/C=C/c2ncnc3ccccc23)cc1,537 nm
3,O=P(c1ccccc1)(c1ccccc1)n1c2ccccc2c2cc(-n3c4ccccc4c4cc(-n5c6ccccc6c6cc(-n7c8ccccc8c8ccccc87)ccc65)ccc43)ccc21,378 nm
4,CCCN(c1ccccc1)c1ccc2c(c1)C(CC)(CC)c1cc(/C=C/c3ccc(/C=C(\C#N)C(=O)O)s3)ccc1-2,572 nm
5,CCN(CC)c1ccc2cc(/C=C/C(=O)/C=C(O)/C=C/c3cc4ccc(N(CC)CC)cc4oc3=O)c(=O)oc2c1,568 nm
6,CC1=N/C(=C\c2ccc(C#N)c(N(C)C)c2)C(=O)N1C,568 nm
7,C1=C(c2ccccc2)C=C(c2ccccc2)/C1=C/C1CCCCC1,420 nm
8,CCCCCCCCCCCCn1c(-c2cc(-c3nc4ccccc4n3CCCCCCCCCCCC)cc(-c3nc4ccccc4n3CCCCCCCCCCCC)c2)nc2ccccc21,367.4 nm

# Same assay, conditions: in C1COCCO1
row,Structure (SMILES),emission maximum
1,CCCN(c1ccccc1)c1ccc2c(c1)C(CC)(CC)c1cc(/C=C/c3ccc(/C=C(\C#N)C(=O)O)s3)ccc1-2,617 nm
2,CCN(CC)c1ccc2cc(/C=C/C(=O)/C=C(O)/C=C/c3cc4ccc(N(CC)CC)cc4oc3=O)c(=O)oc2c1,561 nm
3,Oc1ccc(/N=C/c2ccccc2Oc2ccccc2)cc1,414 nm

# Same assay, conditions: in CC#N
row,Structure (SMILES),emission maximum
1,COC(=O)/C=C/c1sc(-c2ccc(N(C)C)s2)c(-c2cn(C)c3ccccc23)c1O,663 nm
2,c1ccc(-c2cc(-c3ccc4ccc5cccc6ccc3c4c56)ccn2)nc1,410 nm
3,CCC1=C(C)C2=Cc3c4ccccc4c4n3[B-](c3ccccc3)(Oc3ccccc3-4)[N+]2=C1C (stereo not given),634 nm
4,O=C1C=CC2=Cc3ccccc3B(O)N12,412 nm
5,CCCN(c1ccccc1)c1ccc2c(c1)C(CC)(CC)c1cc(/C=C/c3ccc(/C=C(\C#N)C(=O)O)s3)ccc1-2,531 nm
6,CC1=[O+][B-]2(OC(=O)C(=O)O2)OC(c2c3ccccc3cc3ccccc23)=C1,527 nm
7,CCN(CC)c1ccc2cc(/C=C/C(=O)/C=C(O)/C=C/c3cc4ccc(N(CC)CC)cc4oc3=O)c(=O)oc2c1,609 nm
8,O=c1cccc2n1C[C@@H]1CNC[C@H]2C1,380 nm
9,Cc1ccc(-c2nc3c([nH]2)C2=CC(=O)S[C@]2(C)[C@@]2(C)SC(=O)C=C32)cc1,520 nm
10,CC1=N/C(=C\c2ccc(C#N)c(N(C)C)c2)C(=O)N1C,592 nm
11,Oc1ccc(/N=C/c2ccccc2Oc2ccccc2)cc1,424 nm

# Further lines, results first:
row,emission maximum,Structure (SMILES)
1,572 nm,CN(C)c1ccc(/C=C/c2ncnc3ccccc23)cc1
2,435 nm,Oc1ccc2ccccc2c1-c1nc(-c2ccccc2)c2ccccn12
3,462 nm,COC(=O)c1cc(=O)n(C)c2cc(-c3ccccc3)sc12
4,375 nm,NCc1ccc2ccc3cccc4ccc1c2c34
5,413 nm,COc1c2ccccc2c(OC)c2c1c1ccc(F)cc1n2C
6,504.43 nm,O=S1c2ccccc2-c2cc(-c3c4ccccc4cc4ccccc34)ccc21 (stereo not given)
7,605 nm,C#CCn1c2ccccc2c2cc(/C=C/c3cc(C)c4n3[B-](F)(F)[N+]3=C(C)C=C(C)C3=C4c3ccc(I)cc3)ccc21
8,438 nm,O=C1O/C(=C\c2cccs2)c2ccccc21

# Same assay, conditions: in CC(C)=O
row,Structure (SMILES),emission maximum
1,CCN(CC)c1ccc2cc(-c3ccc(C(F)(F)F)cc3)oc(=O)c2c1,454 nm
2,O=P(c1ccccc1)(c1ccccc1)n1c2ccccc2c2cc(-n3c4ccccc4c4cc(-n5c6ccccc6c6cc(-n7c8ccccc8c8ccccc87)ccc65)ccc43)ccc21,382 nm
3,CCCN(c1ccccc1)c1ccc2c(c1)C(CC)(CC)c1cc(/C=C/c3ccc(/C=C(\C#N)C(=O)O)s3)ccc1-2,575 nm
4,CCN(CC)c1ccc2cc(/C=C/C(=O)/C=C(O)/C=C/c3cc4ccc(N(CC)CC)cc4oc3=O)c(=O)oc2c1,598 nm
5,Oc1ccc(/N=C/c2ccccc2Oc2ccccc2)cc1,423 nm

# Same assay, conditions: in CC(C)CO
row,Structure (SMILES),emission maximum
1,Oc1ccc(/N=C/c2ccccc2Oc2ccccc2)cc1,410 nm

# Same assay, conditions: in CCC#N
row,Structure (SMILES),emission maximum
1,c1ccc(-c2cc(-c3ccc4ccc5cccc6ccc3c4c56)ccn2)nc1,408 nm

# Same assay, conditions: in CCCC#N
row,Structure (SMILES),emission maximum
1,c1ccc(-c2cc(-c3ccc4ccc5cccc6ccc3c4c56)ccn2)nc1,408 nm

# Same assay, conditions: in CCCCC
row,Structure (SMILES),emission maximum
1,Oc1ccc(/N=C/c2ccccc2Oc2ccccc2)cc1,410 nm

# Same assay, conditions: in CCCCCC
row,Structure (SMILES),emission maximum
1,CCN(CC)c1ccc2cc(-c3ccc(C(F)(F)F)cc3)oc(=O)c2c1,418 nm
2,c1ccc(-c2cc(-c3ccc4ccc5cccc6ccc3c4c56)ccn2)nc1,385 nm
3,CCC1=C(C)C2=Cc3c4ccccc4c4n3[B-](c3ccccc3)(Oc3ccccc3-4)[N+]2=C1C (stereo not given),636 nm
4,CC1=N/C(=C\c2ccc(C#N)c(N(C)C)c2)C(=O)N1C,496 nm
5,Oc1ccc(/N=C/c2ccccc2Oc2ccccc2)cc1,428 nm

# Same assay, conditions: in CCCCCCCCO
row,Structure (SMILES),emission maximum
1,Oc1ccc(/N=C/c2ccccc2Oc2ccccc2)cc1,420 nm

# Same assay, conditions: in CCCCCCCO
row,Structure (SMILES),emission maximum
1,Oc1ccc(/N=C/c2ccccc2Oc2ccccc2)cc1,413 nm

# Same assay, conditions: in CCCCCCO
row,Structure (SMILES),emission maximum
1,Oc1ccc(/N=C/c2ccccc2Oc2ccccc2)cc1,413 nm

# Same assay, conditions: in CCCCO
row,Structure (SMILES),emission maximum
1,CCN(CC)c1ccc2cc(-c3ccc(C(F)(F)F)cc3)oc(=O)c2c1,468 nm
2,Oc1ccc(/N=C/c2ccccc2Oc2ccccc2)cc1,419 nm

# Same assay, conditions: in CCCCOC(C)=O
row,Structure (SMILES),emission maximum
1,Oc1ccc(/N=C/c2ccccc2Oc2ccccc2)cc1,410 nm

# Same assay, conditions: in CCCO
row,Structure (SMILES),emission maximum
1,CCN(CC)c1ccc2cc(-c3ccc(C(F)(F)F)cc3)oc(=O)c2c1,470 nm
2,c1ccc(-c2cc(-c3ccc4ccc5cccc6ccc3c4c56)ccn2)nc1,429 nm
3,Oc1ccc(/N=C/c2ccccc2Oc2ccccc2)cc1,415 nm

# Same assay, conditions: in CCO
row,Structure (SMILES),emission maximum
1,CCN(CC)c1ccc2cc(-c3ccc(C(F)(F)F)cc3)oc(=O)c2c1,471 nm
2,c1ccc(-c2cc(-c3ccc4ccc5cccc6ccc3c4c56)ccn2)nc1,431 nm
3,Oc1ccc(/N=C/c2ccccc2Oc2ccccc2)cc1,415 nm

# Same assay, conditions: in CCOC(C)=O
row,Structure (SMILES),emission maximum
1,CCN(CC)c1ccc2cc(-c3ccc(C(F)(F)F)cc3)oc(=O)c2c1,443 nm
2,CCCN(c1ccccc1)c1ccc2c(c1)C(CC)(CC)c1cc(/C=C/c3ccc(/C=C(\C#N)C(=O)O)s3)ccc1-2,552 nm
3,CCN(CC)c1ccc2cc(/C=C/C(=O)/C=C(O)/C=C/c3cc4ccc(N(CC)CC)cc4oc3=O)c(=O)oc2c1,566 nm
4,Oc1ccc(/N=C/c2ccccc2Oc2ccccc2)cc1,412 nm

# Same assay, conditions: in CCOCC
row,Structure (SMILES),emission maximum
1,Oc1ccc(/N=C/c2ccccc2Oc2ccccc2)cc1,427 nm

# Same assay, conditions: in CN(C)C=O
row,Structure (SMILES),emission maximum
1,c1ccc2[nH]c(-c3ccc(-c4ccc(-c5ccc(-c6nc7ccccc7[nH]6)cc5)cc4)cc3)nc2c1,409 nm
2,CCN(CC)c1ccc2cc(-c3ccc(C(F)(F)F)cc3)oc(=O)c2c1,462 nm
3,CCCN(c1ccccc1)c1ccc2c(c1)C(CC)(CC)c1cc(/C=C/c3ccc(/C=C(\C#N)C(=O)O)s3)ccc1-2,593 nm
